Data on two compounds can be found in patent US6921531B2, “Administering bifunctional molecules containing a drug moiety and presenter protein ligand for therapy” (The Board of Trustees of the Leland Stanford Junior …, priority 1998, dated 2005).

Read-outs that look alike come from different tables or passages of the source.

One assay concerns the target T1, Fyn SH2 domain (Homo sapiens, UniProt P06241).
T1 construct: The Fyn, Lck and PLC SH2 domains were expressed in bacteria as GST fusion proteins; GST (cleaved yes); made in house; host or cells: bacteria
Kind of assay: Binding constants (Kd) for Fyn SH2 domain, isothermal titration calorimetry. The note with it: ITC. The procedure:
(§1) SLFpYEEI and FKpYEEI are bifunctional molecules that can bind FKBP12 and FKBP52 as well as the Fyn SH2 domain (FIG. 2). The binding constants (Kd values) of the bifunctional molecules for the three proteins were measured using isothermal titration calorimetry (ITC) (Table 1).
FIG. 6 is a graph of the competition binding curves for the Fyn SH2 domain and FKpYEEI as well as the Fyn SH2 domain and the peptide pYEEI in the absence and the presence of FKBP52. Fyn SH2 domain was incubated with peptide beads and increasing concentrations of FKpYEEI in the absence or presence of FKBP52. Specifically, in this assay, in 100 L binding reactions, radioactively labeled Fyn SH2 domain (200 nM) was incubated with 7.5 L of a 1:1 pYEEI bead slurry. Increasing concentrations of FKpYEEI or pYEEI (0.1-20.0 M) were added in the presence or absence of FKBP52 (4.5 M). The binding reactions were rotated at room temperature for 2 hours, centrifuged and analysed as described above. Half maximal binding (IC50) is observed at 750 riM FKpYEEI in the absence of FKBP52. […] Using ITC, the binding constant (Kd) for Fyn SH2 domain binding to the FKpYEEI-FKBP52 complex was determined.
FIG. 13 is a graph of the competition binding curves for the Fyn SH2 domain and SLFpYEEI in the absence and the presence of FKBP12. Fyn SH2 domain was incubated with increasing concentrations of SLFpYEEI in the absence or presence of FKBP12. In this assay, in 100 L binding reactions, radioactively labeled Fyn SH2 domain (200 nM) was incubated with 7.5 L of a 1:1 pYEEI bead slurry. Increasing concentrations of SLFpYEEI (0.1-20.0 M) were added in the presence or absence of FKBP12 (20 M). The binding reactions were rotated at room temperature for 2 hours, centrifuged and analysed as described above. […] This effect was confirmed by ITC.
On the technique in general: Isothermal titration calorimetry measures the heat released or taken up as one component is titrated into another.

The target in another assay is T2, FKBP52 (Homo sapiens, UniProt Q02790).
T2 construct: His6 (N); made in house
T2 sequence (Q02790 1-459): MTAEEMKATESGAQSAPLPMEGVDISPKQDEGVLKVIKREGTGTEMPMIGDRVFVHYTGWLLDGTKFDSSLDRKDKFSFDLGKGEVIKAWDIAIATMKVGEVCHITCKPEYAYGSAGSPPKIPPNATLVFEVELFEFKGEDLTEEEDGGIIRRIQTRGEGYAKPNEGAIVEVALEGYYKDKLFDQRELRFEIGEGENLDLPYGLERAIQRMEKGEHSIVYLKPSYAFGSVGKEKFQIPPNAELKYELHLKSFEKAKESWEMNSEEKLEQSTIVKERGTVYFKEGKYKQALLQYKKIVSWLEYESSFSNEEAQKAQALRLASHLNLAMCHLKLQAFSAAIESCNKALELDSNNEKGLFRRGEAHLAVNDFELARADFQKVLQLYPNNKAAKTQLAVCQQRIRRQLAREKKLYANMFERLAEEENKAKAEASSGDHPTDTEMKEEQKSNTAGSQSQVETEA
Briefly: Binding constants (Kd) for FKBP52, isothermal titration calorimetry.
Source text: SLF was synthesized according to the procedures of Holt et al. [J. Am. Chem. Soc. 1993, 115, 9925]. SLF was coupled to the N-terminus of the resin-bound protected pYEEI peptide using PyBOP. The heterodimeric SLFpYEEI was deprotected and cleaved from the Novasyn TGT resin (Calbiochem-Novabiochem, San Diego, Ca.) using 25% trifluoroacetic acid and 2.5% triisopropyl silane in methylene chloride and the desired product was isolated using reverse phase HPLC. C. […] Recombinant FKBP12 was expressed as a GST fusion protein and bound to glutathione beads (Pharmacia). Using thrombin (Sigma) to cleave the GST-FKBP12 fusion protein at a thrombin cleavage site in the linker between GST and FKBP12, recombinant FKBP12 could be released from the glutathione beads where GST remained bound. FKBP52 was expressed with a tag of six histidine residues at its N-terminus (pET28c expression vector, Novagen). The recombinant protein was bound via the histidine tag to Ni^2+ NTA agarose beads (Qiagen), washed extensively and eluted with imidazole. […]
as §1

Where [1] appears, read: ligand alone, no presenter protein, read-out: Binding constant (Kd) for Fyn SH2 domain, free ligand.

T1 sequence (P06241 149-246 limits assumed): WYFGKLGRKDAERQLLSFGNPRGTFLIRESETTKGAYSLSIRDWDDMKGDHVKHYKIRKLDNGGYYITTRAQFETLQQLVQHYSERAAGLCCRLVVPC

With `CC[C@H](C)[C@H](NC(=O)[C@H](CCC(=O)O)NC(=O)[C@H](CCC(=O)O)NC(=O)[C@H](Cc1ccc(OP(=O)(O)O)cc1)NC(=O)COc1cccc([C@@H](CCc2ccc(OC)c(OC)c2)OC(=O)[C@@H]2CCCCN2C(=O)C(=O)C(C)(C)CC)c1)C(=O)O` [SLFpYEEI], the Kd (as a rule, the free concentration of one partner at which half of the binding sites on the other are occupied at equilibrium, for simple one-to-one binding) at Fyn SH2 domain (setting [1]) is 0.183 µM.

For `CC[C@H](C)[C@H](NC(=O)[C@H](CCC(=O)O)NC(=O)[C@H](CCC(=O)O)NC(=O)[C@H](Cc1ccc(OP(=O)(O)O)cc1)NC(=O)OCC[C@@H]1/C=C(\C)C[C@H](C)C[C@H](OC)[C@H]2O[C@@](O)(C(=O)C(=O)N3CCCC[C@H]3C(=O)O[C@H](/C(C)=C/[C@@H]3CC[C@@H](O)[C@H](OC)C3)[C@H](C)[C@@H](O)CC1=O)[C@H](C)C[C@@H]2OC)C(=O)O` [FKpYEEI], the Kd worked out at 0.15 µM at FKBP52; 0.13 µM on Fyn SH2 domain (in complex with FKBP52, read-out: Kd for Fyn SH2 domain binding to the FKpYEEI-FKBP52 complex); 0.52 µM on Fyn SH2 domain (setting [1]).
